Data reported in US20230114728A1 (Venatorx Pharmaceuticals, Inc., priority 2019, published 2023).
≈ marks a conversion by molar mass, not a printed value.

Legend:
Experiment in all cases: Broth microdilution MIC in CAMHB
Type in all cases: cell-based
A. baumannii ATCC 19606 = conditions: Acinetobacter baumannii, ATCC19606; MHB; read-out: Minimum Inhibitory Concentration, A. baumannii ATCC 19606
In short: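 Colonies from cation-adjusted Mueller Hinton agar are grown in broth (3-5 h, 37° C), adjusted by OD600, and added at 2-8×10^5 CFU/mL to 2-fold compound dilutions. After 16-20 h at 37° C, the lowest concentration without growth is taken as MIC.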

E. coli 901C = conditions: Escherichia coli; E. coli 901C (hyper-permeable); MHB; read-out: Minimum Inhibitory Concentration, E. coli 901C
In short: (§1)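 Per CLSI broth microdilution, colonies were grown 3-5 h at 37° C in cation-adjusted Mueller Hinton broth, then diluted to a starting inoculum of 2-8×10^5 CFU/mL against 2-fold serial compound dilutions. Plates were incubated 16-20 h at 37° C, and MIC was read visually as the lowest concentration with no growth.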

E. coli AG100A = conditions: Escherichia coli, read-out: Minimum Inhibitory Concentration, E. coli AG100A
In short: as §1

E. coli AG100 = conditions: Escherichia coli; E. coli AG100 (wild-type parent); MHB; read-out: Minimum Inhibitory Concentration, E. coli AG100
In short: as §1

E. coli ATCC 25922 = conditions: Escherichia coli, ATCC25922; E. coli ATCC 25922; MHB; read-out: Minimum Inhibitory Concentration, E. coli 25922
In short: as §1

E. coli D22 = conditions: Escherichia coli; E. coli D22 (hyper-permeable); MHB; read-out: Minimum Inhibitory Concentration, E. coli D22
In short: as §1

[1] = system: K. pneumoniae 848844 producing SHV-11 and KPC-2; conditions: Klebsiella pneumoniae, read-out: Minimum Inhibitory Concentration, K. pneumoniae 848844
In short: as §1

[2] = system: K. pneumoniae SI-117 producing VIM-1; conditions: Klebsiella pneumoniae, read-out: Minimum Inhibitory Concentration, K. pneumoniae SI-117
In short: as §1

[3] = system: K. pneumoniae UMM producing SHV-5 and KPC-2; conditions: Klebsiella pneumoniae, read-out: Minimum Inhibitory Concentration, K. pneumoniae UMM
In short: as §1

[4] = system: P. aeruginosa (ΔmexAB-oprM); conditions: Pseudomonas aeruginosa, read-out: Minimum Inhibitory Concentration, P. aeruginosa ΔmexAB-OprM
In short: as §1

P. aeruginosa ATCC 27853 = conditions: Pseudomonas aeruginosa, ATCC27853; MHB; read-out: Minimum Inhibitory Concentration, P. aeruginosa ATCC 27853
In short: as §1

P. aeruginosa ATCC 35151 = conditions: Pseudomonas aeruginosa, ATCC35151; MHB; hyper-permeable strain; read-out: Minimum Inhibitory Concentration, P. aeruginosa ATCC 35151
In short: as §1

| Compound | MIC (A. baumannii ATCC 19606) | MIC (E. coli 901C) | MIC (E. coli AG100A) | MIC (E. coli AG100) | MIC (E. coli ATCC 25922) | MIC (E. coli D22) | MIC [1] | MIC [2] | MIC [3] | MIC [4] | MIC (P. aeruginosa ATCC 27853) | MIC (P. aeruginosa ATCC 35151) |
| --- | --- | --- | --- | --- | --- | --- | --- | --- | --- | --- | --- | --- |
| NS(=O)(=O)Nc1cccc(C(NC(=O)N2CCN(CCF)C(=O)C2=O)C(=O)N[C@H]2Cc3cccc(C(=O)O)c3OB2O)c1 (stereo partly drawn) [Example 116, (3R)-3-(2-(4-(2-fluoroethyl)-2,3-dioxopiperazine-1-carboxamido)-2-(3-(sulfamoylamino)phenyl)acetamido)-2-hydroxy-3,4-dihydro-2H-benzo[e][1,2]oxaborinine-8-carboxylic acid] | > 128 µg/mL | < 0.25 µg/mL | 2 to 4 µg/mL (≈ 3.22 to 6.45 µM) | 8 to 16 µg/mL (≈ 12.9 to 25.8 µM) | 8 to 16 µg/mL (≈ 12.9 to 25.8 µM) | 0.5 to 1 µg/mL (≈ 0.806 to 1.61 µM) | > 128 µg/mL | 32 to 64 µg/mL (≈ 51.6 to 103 µM) | 32 to 64 µg/mL (≈ 51.6 to 103 µM) | 8 to 16 µg/mL (≈ 12.9 to 25.8 µM) | > 128 µg/mL | 0.5 to 1 µg/mL (≈ 0.806 to 1.61 µM) |
| NCCCN1CCN(C(=O)N[C@@H](C(=O)N[C@H]2Cc3cccc(C(=O)O)c3OB2O)c2cccc(NS(N)(=O)=O)c2)C(=O)C1=O [Example 117, (R)-3-((R)-2-(4-(3-aminopropyl)-2,3-dioxopiperazine-1-carboxamido)-2-(3-(sulfamoylamino)phenyl)acetamido)-2-hydroxy-3,4-dihydro-2H-benzo[e][1,2]oxaborinine-8-carboxylic acid] | 32 to 64 µg/mL (≈ 50.7 to 101 µM) | 2 to 4 µg/mL (≈ 3.17 to 6.33 µM) | 2 to 4 µg/mL (≈ 3.17 to 6.33 µM) | 32 to 64 µg/mL (≈ 50.7 to 101 µM) | 32 to 64 µg/mL (≈ 50.7 to 101 µM) | 2 to 4 µg/mL (≈ 3.17 to 6.33 µM) | 32 to 64 µg/mL (≈ 50.7 to 101 µM) | 32 to 64 µg/mL (≈ 50.7 to 101 µM) | 32 to 64 µg/mL (≈ 50.7 to 101 µM) | 2 to 4 µg/mL (≈ 3.17 to 6.33 µM) | 32 to 64 µg/mL (≈ 50.7 to 101 µM) | < 0.25 µg/mL |
| NCCCN1CCN(C(=O)N[C@H](C(=O)N[C@H]2Cc3cccc(C(=O)O)c3OB2O)c2cccc(NS(N)(=O)=O)c2)C(=O)C1=O [Example 118, (R)-3-((S)-2-(4-(3-aminopropyl)-2,3-dioxopiperazine-1-carboxamido)-2-(3-(sulfamoylamino)phenyl)acetamido)-2-hydroxy-3,4-dihydro-2H-benzo[e][1,2]oxaborinine-8-carboxylic acid] | > 128 µg/mL | 2 to 4 µg/mL (≈ 3.17 to 6.33 µM) | 2 to 4 µg/mL (≈ 3.17 to 6.33 µM) | 32 to 64 µg/mL (≈ 50.7 to 101 µM) | 32 to 64 µg/mL (≈ 50.7 to 101 µM) | 8 to 16 µg/mL (≈ 12.7 to 25.3 µM) | > 128 µg/mL | > 128 µg/mL | 32 to 64 µg/mL (≈ 50.7 to 101 µM) | 8 to 16 µg/mL (≈ 12.7 to 25.3 µM) | > 128 µg/mL | 0.5 to 1 µg/mL (≈ 0.792 to 1.58 µM) |
| NC1(CN2CCN(C(=O)NC(C(=O)N[C@H]3Cc4cccc(C(=O)O)c4OB3O)c3cccc(NS(N)(=O)=O)c3)C(=O)C2=O)CC1 (stereo partly drawn) [Example 120, (3R)-3-(2-(4-((1-aminocyclopropyl)methyl)-2,3-dioxopiperazine-1-carboxamido)-2-(3-(sulfamoylamino)phenyl)acetamido)-2-hydroxy-3,4-dihydro-2H-benzo[e][1,2]oxaborinine-8-carboxylic acid] | > 128 µg/mL | 2 to 4 µg/mL (≈ 3.11 to 6.22 µM) | 8 to 16 µg/mL (≈ 12.4 to 24.9 µM) | > 128 µg/mL | > 128 µg/mL | 8 to 16 µg/mL (≈ 12.4 to 24.9 µM) | > 128 µg/mL | > 128 µg/mL | 32 to 64 µg/mL (≈ 49.7 to 99.5 µM) | 8 to 16 µg/mL (≈ 12.4 to 24.9 µM) | > 128 µg/mL | 0.5 to 1 µg/mL (≈ 0.777 to 1.55 µM) |
| O=C(O)c1c(F)ccc2c1OB(O)[C@@H](NC(=O)C(NC(=O)N1CCN(CCF)C(=O)C1=O)c1c(F)cc(O)cc1F)C2 (stereo partly drawn) [Example 129, (3R)-3-(2-(2,6-difluoro-4-hydroxyphenyl)-2-(4-(2-fluoroethyl)-2,3-dioxopiperazine-1-carboxamido)acetamido)-7-fluoro-2-hydroxy-3,4-dihydro-2H-benzo[e][1,2]oxaborinine-8-carboxylic acid] | > 128 µg/mL | 0.5 to 1 µg/mL (≈ 0.839 to 1.68 µM) | 8 to 16 µg/mL (≈ 13.4 to 26.8 µM) | 32 to 64 µg/mL (≈ 53.7 to 107 µM) | 32 to 64 µg/mL (≈ 53.7 to 107 µM) | 2 to 4 µg/mL (≈ 3.35 to 6.71 µM) | 32 to 64 µg/mL (≈ 53.7 to 107 µM) | 32 to 64 µg/mL (≈ 53.7 to 107 µM) | 32 to 64 µg/mL (≈ 53.7 to 107 µM) | 32 to 64 µg/mL (≈ 53.7 to 107 µM) | > 128 µg/mL | 0.5 to 1 µg/mL (≈ 0.839 to 1.68 µM) |
| CCN1CCN(C(=O)NC(C(=O)N[C@H]2Cc3ccc(F)c(C(=O)O)c3OB2O)c2c(F)cc(O)cc2F)C(=O)C1=O (stereo partly drawn) [Example 130, (3R)-3-(2-(2,6-difluoro-4-hydroxyphenyl)-2-(4-ethyl-2,3-dioxopiperazine-1-carboxamido)acetamido)-7-fluoro-2-hydroxy-3,4-dihydro-2H-benzo[e][1,2]oxaborinine-8-carboxylic acid] | > 128 µg/mL | < 0.25 µg/mL | 8 to 16 µg/mL (≈ 13.8 to 27.7 µM) | 32 to 64 µg/mL (≈ 55.3 to 111 µM) | 32 to 64 µg/mL (≈ 55.3 to 111 µM) | 2 to 4 µg/mL (≈ 3.46 to 6.92 µM) | 32 to 64 µg/mL (≈ 55.3 to 111 µM) | 32 to 64 µg/mL (≈ 55.3 to 111 µM) | 8 to 16 µg/mL (≈ 13.8 to 27.7 µM) | 32 to 64 µg/mL (≈ 55.3 to 111 µM) | > 128 µg/mL | < 0.25 µg/mL |
